Columns and labels:
[1] = system: cocklebur; test: Test B pre/postemergence cocklebur; assay type: in vivo, Xanthium strumarium
How it was run: (§1)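 Response is a visual 0-to-10 score relative to untreated plants, where 0 means no effect and 10 means complete control, taken twelve to sixteen days after application. Treatments went onto soil at planting and onto foliage of 1- to 4-leaf plants, using a surfactant-containing non-phytotoxic solvent.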

[2] = system: giant foxtail; test: Test B pre/postemergence giant foxtail; assay type: in vivo, Setaria faberii
How it was run: as §1

[3] = system: wheat; test: Test B pre/postemergence wheat; assay type: in vivo, Triticum aestivum
How it was run: as §1

[4] = system: wild oat; test: Test B pre/postemergence wild oat; assay type: in vivo, Avena fatua
How it was run: as §1

[5] = system: purple nutsedge; test: Test B pre/postemergence purple nutsedge; assay type: in vivo, Cyperus rotundus
How it was run: as §1

[6] = system: smallflower flatsedge; test: Test B flood test smallflower flatsedge; assay type: in vivo, Cyperus difformis
How it was run: (§2)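 Plants were grown to the 2-leaf stage before treatment with test chemical, then held in a greenhouse for twelve to sixteen days. Injury was visually rated against untreated controls on a 0–10 scale, where 0 is no effect and 10 is complete control.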

[7] = system: surinam grass; test: Test B pre/postemergence surinam grass; assay type: in vivo, Brachiaria decumbens
How it was run: as §1

[8] = system: rape; test: Test B pre/postemergence rape; assay type: in vivo, Brassica napus
How it was run: as §1

[9] = system: duck salad; test: Test B flood test duck salad; assay type: in vivo, Heteranthera limosa
How it was run: as §2

[10] = system: bamyardgrass; test: Test B flood test barnyardgrass; assay type: in vivo, Echinochloa crus-galli
How it was run: as §2

[11] = system: sugar beet; test: Test B pre/postemergence sugar beet; assay type: in vivo, Beta vulgaris
How it was run: as §1

[12] = system: corn; test: Test B pre/postemergence corn; assay type: in vivo, Zea mays
How it was run: as §1

[13] = system: pigweed; test: Test B pre/postemergence pigweed; assay type: in vivo, Amaranthus retroflexus
How it was run: as §1

[14] = system: crabgrass; test: Test B pre/postemergence crabgrass; assay type: in vivo, Digitaria sanguinalis
How it was run: as §1

[15] = system: rice; test: Test B flood test rice; assay type: in vivo, Oryza sativa
How it was run: as §2

[16] = system: morningglory; test: Test B pre/postemergence morningglory; assay type: in vivo, Ipomoea hederacea
How it was run: as §1

[17] = Postemergence, Rate 125 g/ha, scale of 0 to 10 where 0 is no effect and 10 is complete control
[18] = Preemergence, Rate 62 g/ha, scale 0 to 10 (0 no effect, 10 complete control)
[19] = Preemergence, Rate 125 g/ha, 0 is no effect, 10 is complete control
[20] = Preemergence, Rate 250 g/ha, scale 0 to 10, 0 is no effect, 10 is complete control
[21] = Preemergence, Rate 500 g/ha, scale 0 to 10 (0 no effect, 10 complete control)
[22] = Rate 62 g/ha, Postemergence, scale of 0 to 10 where 0 is no effect and 10 is complete control
[23] = Rate 250 g/ha, Postemergence, scale 0 to 10, 0 is no effect, 10 is complete control
[24] = Rate 500 g/ha, Postemergence, scale 0 to 10, 0 no effect, 10 complete control
[25] = Postemergence (flood test species), Rate 125 g/ha, scale of 0 to 10 where 0 is no effect and 10 is complete control
[26] = Rate 62 g/ha, Postemergence section, flood test species, scale of 0 to 10 where 0 is no effect and 10 is complete control
[27] = Rate 250 g/ha, Postemergence (flood test), scale 0 to 10, 0 is no effect, 10 is complete control
[28] = Rate 250 g/ha, headed Pre-emergence (flood test species), scale 0 to 10 (0 no effect, 10 complete control)
[29] = Rate 500 g/ha, headed Pre-emergence (flood test species), scale 0 to 10 (0 no effect, 10 complete control)
[30] = Rate 500 g/ha, listed under Postemergence (flood test species), scale 0 to 10, 0 no effect, 10 complete control
[31] = Rate 2000 g/ha, Pre-emergence (as headed), scale 0 to 10
[32] = Postemergence, Rate 62 g/ha, scale 0 to 10, 0 is no effect, 10 is complete control
[33] = Rate 1000 g/ha, Pre-emergence (as headed), scale 0 to 10

In the case of `CC(C)N(C(=O)n1oc(=O)n(-c2cnn(C)c2)c1=O)c1ccccc1` [Compound 123], the “Cocklebur plant response rating” value [1, 17] is reported as 0, the “Cocklebur plant response rating” value [1, 18] is reported as 0 and the “Cocklebur plant response rating (0 to 10 scale)” value [1, 19] is reported as 0. The “Cocklebur plant response rating” value [1, 20] was 0, the “Cocklebur plant response rating” value [1, 21] was 0 and the “Cocklebur plant response rating” value [1, 22] was 0. For the same molecule, the “Plant response rating, Cocklebur” value [1, 23] was 0, the “Cocklebur plant response rating” value [1, 24] was 1 and the “Giant foxtail plant response rating” value [2, 17] was 5. For the same molecule, the “Giant foxtail plant response rating” value [2, 18] was 7, the “Giant foxtail plant response rating (0 to 10 scale)” value [2, 19] was 9 and the “Giant foxtail plant response rating” value [2, 20] was 9. The “Giant foxtail plant response rating” value [2, 21] was 10, the “Giant foxtail plant response rating” value [2, 22] was 3 and the “Plant response rating, Giant foxtail” value [2, 23] was 8. The “Giant foxtail plant response rating” value [2, 24] was 9, the “Wheat plant response rating” value [3, 17] was 1 and the “Wheat plant response rating” value [3, 18] was 0. For the same molecule, the “Wheat plant response rating (0 to 10 scale)” value [3, 19] was 0, the “Wheat plant response rating” value [3, 20] was 5 and the “Wheat plant response rating” value [3, 21] was 7. For the same molecule, the “Wheat plant response rating” value [3, 22] was 0, the “Plant response rating, Wheat” value [3, 23] was 1 and the “Wheat plant response rating” value [3, 24] was 4. The “Wild oats plant response rating” value [4, 17] was 0, the “Wild oats plant response rating” value [4, 18] was 0 and the “Wild oats plant response rating (0 to 10 scale)” value [4, 19] was 2. For the same molecule, the “Wild oats plant response rating” value [4, 20] was 6, the “Wild oats plant response rating” value [4, 21] was 6 and the “Wild oats plant response rating” value [4, 22] was 0. The “Plant response rating, Wild oats” value [4, 23] was 0, the “Wild oats plant response rating” value [4, 24] was 2 and the “Nutsedge plant response rating” value [5, 17] was 0. For the same molecule, the “Nutsedge plant response rating” value [5, 18] was 0, the “Nutsedge plant response rating (0 to 10 scale)” value [5, 19] was 0 and the “Nutsedge plant response rating” value [5, 20] was 0. The “Nutsedge plant response rating” value [5, 21] was 0, the “Nutsedge plant response rating” value [5, 22] was 0 and the “Plant response rating, Nutsedge” value [5, 23] was 0. For the same molecule, the “Nutsedge plant response rating” value [5, 24] was 0, the “S. Flatsedge plant response rating” value [6, 25] was 0 and the “S. Flatsedge plant response rating” value ([6]; Pre-emergence, Rate 1000 g/ha, scale 0 to 10 (0 no effect, 10 complete control)) was 0. The “S. Flatsedge plant response rating” value [6, 26] was 0, the “Plant response rating, S. Flatsedge” value [6, 27] was 0 and the “S. Flatsedge plant response rating” value [6, 28] was 0. The “Plant response rating, S. Flatsedge” value [6, 29] was 0, the “S. Flatsedge plant response rating” value [6, 30] was 0 and the “S. Flatsedge plant response rating” value [6, 31] was 0. The “B. signalgrass plant response rating” value [7, 32] was 0, the “B. signalgrass plant response rating” value [7, 17] was 0 and the “B. signalgrass plant response rating” value [7, 18] was 0. The “B. signalgrass plant response rating (0 to 10 scale)” value [7, 19] was 0, the “B. signalgrass plant response rating” value [7, 20] was 0 and the “B. signalgrass plant response rating” value [7, 21] was 2. The “Plant response rating, B. signalgrass” value [7, 23] was 3, the “B. signalgrass plant response rating” value ([7]; Rate 500 g/ha, Postemergence, scale of 0 to 10 where 0 is no effect and 10 is complete control) was 5 and the “Rape plant response rating” value [8, 17] was 0. For the same molecule, the “Rape plant response rating” value [8, 18] was 0, the “Rape plant response rating (0 to 10 scale)” value [8, 19] was 0 and the “Rape plant response rating” value [8, 20] was 0. The “Rape plant response rating” value [8, 21] was 0, the “Rape plant response rating” value [8, 22] was 0 and the “Plant response rating, Rape” value [8, 23] was 0. For the same molecule, the “Rape plant response rating” value [8, 24] was 2, the “Ducksalad plant response rating” value [9, 25] was 0 and the “Ducksalad plant response rating” value [9, 26] was 0. The “Plant response rating, Ducksalad” value [9, 27] was 0, the “Ducksalad plant response rating” value [9, 28] was 0 and the “Plant response rating, Ducksalad” value [9, 29] was 0. The “Ducksalad plant response rating” value [9, 30] was 0, the “Ducksalad plant response rating” value [9, 33] was 0 and the “Ducksalad plant response rating” value [9, 31] was 0. The “Barnyardgrass plant response rating” value [10, 25] was 0, the “Barnyardgrass plant response rating” value [10, 32] was 0 and the “Plant response rating, Barnyardgrass” value [10, 27] was 0. For the same molecule, the “Barnyardgrass plant response rating” value [10, 28] was 0, the “Plant response rating, Barnyardgrass” value [10, 29] was 0 and the “Barnyardgrass plant response rating” value [10, 30] was 0. The “Barnyardgrass plant response rating” value [10, 33] was 0, the “Barnyardgrass plant response rating” value ([10]; Rate 2000 g/ha, Pre-emergence (as headed), scale 0 to 10, 0 no effect, 10 complete control) was 0 and the “Sugarbeets plant response rating” value [11, 17] was 0. For the same molecule, the “Sugarbeets plant response rating” value [11, 18] was 0, the “Sugarbeets plant response rating (0 to 10 scale)” value [11, 19] was 3 and the “Sugarbeets plant response rating” value [11, 20] was 5. The “Sugarbeets plant response rating” value [11, 21] was 7, the “Sugarbeets plant response rating” value [11, 22] was 0 and the “Plant response rating, Sugarbeets” value [11, 23] was 1. The “Sugarbeets plant response rating” value [11, 24] was 2, the “Corn plant response rating” value [12, 17] was 0 and the “Corn plant response rating” value [12, 18] was 0. The “Corn plant response rating (0 to 10 scale)” value [12, 19] was 0, the “Corn plant response rating” value [12, 20] was 0 and the “Corn plant response rating” value [12, 21] was 0. For the same molecule, the “Corn plant response rating” value [12, 22] was 0, the “Plant response rating, Corn” value [12, 23] was 0 and the “Corn plant response rating” value [12, 24] was 0. For the same molecule, the “Redroot pigweed plant response rating” value [13, 18] was 0, the “Redroot pigweed plant response rating (0 to 10 scale)” value [13, 19] was 4 and the “Redroot pigweed plant response rating” value [13, 20] was 5. The “Redroot pigweed plant response rating” value [13, 21] was 9, the “Redroot pigweed plant response rating” value [13, 22] was 0 and the “Plant response rating, Redroot pigweed” value [13, 23] was 2. The “Redroot pigweed plant response rating” value [13, 24] was 2, the “Crabgrass plant response rating” value [14, 17] was 4 and the “Crabgrass plant response rating” value [14, 18] was 4. The “Crabgrass plant response rating (0 to 10 scale)” value [14, 19] was 5, the “Crabgrass plant response rating” value [14, 20] was 5 and the “Crabgrass plant response rating” value [14, 21] was 7. The “Crabgrass plant response rating” value [14, 22] was 0, the “Plant response rating, Crabgrass” value [14, 23] was 8 and the “Crabgrass plant response rating” value [14, 24] was 9. For the same molecule, the “Rice plant response rating” value [15, 25] was 0, the “Rice plant response rating” value [15, 26] was 0 and the “Plant response rating, Rice” value [15, 27] was 0. The “Rice plant response rating” value [15, 28] was 0, the “Plant response rating, Rice” value [15, 29] was 0 and the “Rice plant response rating” value [15, 30] was 0. The “Rice plant response rating” value [15, 33] was 0, the “Rice plant response rating” value [15, 31] was 0 and the “Morningglory plant response rating” value [16, 17] was 9. For the same molecule, the “Morningglory plant response rating” value [16, 18] was 0, the “Morningglory plant response rating (0 to 10 scale)” value [16, 19] was 0 and the “Morningglory plant response rating” value [16, 20] was 0. The “Morningglory plant response rating” value [16, 21] was 0, the “Morningglory plant response rating” value [16, 22] was 8 and the “Plant response rating, Morningglory” value [16, 23] was 10. The “Morningglory plant response rating” value [16, 24] was 10.

Source: patent US6737383B1, “Herbicidal oxadiazolidines” (priority 1999, dated 2004)
